# Like-named read-outs stand apart in the source and are kept apart here.
# Experiments:
# [1] = test system: MAP-LC3
# Experimental: (§1) The protocol is as follows: • Cultivation of cells for 24 hours in a complete culture medium. • Removal of the culture medium and replacement with the non-nutritive culture medium that contains the oxidizing agent H2O2 for 3 hours (different doses of H2O2—125 μM and/or 250 μM—have been tested). • Removal of the oxidizing agent and the non-nutritive culture medium, replacement by a complete culture medium without an oxidizing agent. • Evaluation of the expression of MAP-LC3, the phosphorylated protein p53, or the protein DRAM after cellular recovery. Several recovery times have been selected (0.5 hour, 1 hour, 1.5 hours, or 2 hours of recovery).
# It is possible to evaluate the autophagy of stressed cutaneous cells by visualizing the expression of the protein MAP-LC3 by immunofluorescent marking.
# The evaluation of the expression MAP-LC3 was analyzed under these moderate stress conditions (125 μM and 250 μM of hydrogen peroxide H2O2) on HaCaT keratinocyte cultures and on normal human keratinocytes. With the immunomarking results being qualitative, several levels of expression of ATG5-12 were defined: […]
# [2] = test system: phosphorylated protein p53; conditions: H2O2 125 μM, relative to control without stress
# Experimental: as §1
# It is also possible to evaluate the autophagy of stressed cutaneous cells by visualizing the expression of the phosphorylated protein p53 by Western Blott.
# The evaluation of the expression of the phosphorylated protein p53 has therefore been analyzed under these moderate stress conditions with 125 μM of H2O2 on HaCaT keratinocyte cultures and on normal human keratinocytes. The expression of phosphorylated p53 is presented in the table below in percentage relative to the control (without stress).
# [3] = test system: protein DRAM; conditions: H2O2 125 μM, relative to control without stress
# Experimental: as §1
# It is also possible to evaluate the autophagy of stressed cutaneous cells by visualizing the expression of the protein DRAM by Western Blott.
# The evaluation of the expression of DRAM was therefore analyzed under these moderate stress conditions with 125 μM of H2O2 on HaCaT keratinocyte cultures and on normal human keratinocytes. The expression of DRAM is presented in the table below in percentage relative to the control (without stress).
# [4] = test system: MAP-LC3; conditions: relative to control without stress
# Experimental: This study has as its objective to compare the autophagy level of young cells (from donors with a mean age of 26 years) and aged cells (from donors with a mean age of 70 years) that are subjected to the same oxidative and nutritive stresses.
# The evaluation of the autophagy level was considered by the analysis of the expression of the protein MAP-LC3 by Western Blott.
# The protocol that is put into place is as follows: • Cultures of so-called young or aged cells for 24 hours in the complete culture medium, • Removal of the complete culture medium, replacement with the non-nutritive culture medium that contains the oxidizing agent H2O2 for 3 hours at different doses, • Removal of the oxidizing agent, replacement by the complete culture medium without an oxidizing agent, • Evaluation of the expression of MAP-LC3 after cellular recovery.
smiles,measurement,setting,value
"OO [H2O2, hydrogen peroxide]",Expression of MAP-LC3,"[1]; H2O2 125 μM for 3 hours in non-nutritive medium, recovery time 0.5 hour, HaCaT and normal human keratinocytes",++
same,Expression of MAP-LC3,"[1]; H2O2 125 μM for 3 hours in non-nutritive medium, recovery time 1 hour",++
same,Expression of MAP-LC3,"[1]; H2O2 125 μM for 3 hours in non-nutritive medium, recovery time 1.5 hours",+++
same,Expression of MAP-LC3,"[1]; H2O2 125 μM for 3 hours in non-nutritive medium, recovery time 2 hours",++
same,Expression of MAP-LC3,"[1]; H2O2 250 μM for 3 hours in non-nutritive medium, recovery time 0.5 hour",++
same,Expression of MAP-LC3,"[1]; H2O2 250 μM for 3 hours in non-nutritive medium, recovery time 1 hour",+++
same,Expression of MAP-LC3,"[1]; H2O2 250 μM for 3 hours in non-nutritive medium, recovery time 1.5 hours",++
same,Expression of MAP-LC3,"[1]; H2O2 250 μM for 3 hours in non-nutritive medium, recovery time 2 hours",+
same,Phosphorylated Expression p53 (%),[2]; recovery time 0.5 hour,221%
same,Phosphorylated Expression p53 (%),[2]; recovery time 1 hour,140%
same,Phosphorylated Expression p53 (%),[2]; recovery time 2 hours,128%
same,Expression of DRAM (%),[3]; recovery time 0.5 hour,120%
same,Expression of DRAM (%),[3]; recovery time 1 hour,180%
same,Expression of DRAM (%),[3]; recovery time 1.5 hours,390%
same,Expression of DRAM (%),[3]; recovery time 2 hours,200%
same,Expression of MAP-LC3 On Aged Cells,"[4]; H2O2 125 μM for 3 hours, aged cells (donors mean age 70 years)",138%
same,Expression of MAP-LC3 On Young Cells,"[4]; H2O2 125 μM for 3 hours, young cells (donors mean age 26 years)",172%
same,Expression of MAP-LC3 On Aged Cells,"[4]; H2O2 250 μM for 3 hours, aged cells",187%
same,Expression of MAP-LC3 On Young Cells,"[4]; H2O2 250 μM for 3 hours, young cells",322%
same,Expression of MAP-LC3 On Aged Cells,"[4]; H2O2 400 μM for 3 hours, aged cells",135%
same,Expression of MAP-LC3 On Young Cells,"[4]; H2O2 400 μM for 3 hours, young cells",168%
same,Expression of MAP-LC3 On Aged Cells,"[4]; H2O2 600 μM for 3 hours, aged cells",96%
same,Expression of MAP-LC3 On Young Cells,"[4]; H2O2 600 μM for 3 hours, young cells",143%
same,Expression of MAP-LC3 On Aged Cells,"[4]; H2O2 1000 μM for 3 hours, aged cells",92%
same,Expression of MAP-LC3 On Young Cells,"[4]; H2O2 1000 μM for 3 hours, young cells",117%
